Experimental data reported in ChEMBL document CHEMBL3407452, “Linear and branched alkyl-esters and amides of gallic acid and other (mono-, di- and tri-) hydroxy benzoyl derivatives as promising anti-HCV inhibitors” (Eur J Med Chem, 2015).
pEC50: −log10 of the molar value. Calls of active or inactive are those of the source. The rule behind the calls is not given here.

Tests used:
[1] = tested on: Human immunodeficiency virus 1; experiment: Antiviral activity against HIV1 3B infected in human CEM cells assessed as reduction in virus-induced cytopathicity after 4 to 5 days by microscopy based syncytium cell formation assay; type: functional, organism-based, CCRF-CEM; conditions: Human immunodeficiency virus 1, 3B, CCRF-CEM; read-out: EC50
[2] = tested on: Human immunodeficiency virus 2; experiment: Antiviral activity against HIV2 ROD infected in human CEM cells assessed as reduction in virus-induced cytopathicity after 4 to 5 days by microscopy based syncytium cell formation assay; type: functional, organism-based, ISOLATE ROD, CCRF-CEM; conditions: Human immunodeficiency virus 2, ISOLATE ROD, CCRF-CEM; read-out: EC50
[3] = Cytotoxicity against human CEM cells assessed as inhibition of cell proliferation; type: cell-based; conditions: CEM cells (CCRF-CEM)
[4] = tested on: Hepatitis C virus; experiment: Antiviral activity against HCV genotype 1b I389luc-ubi-neo/NS3-3'/5.1 replicons infected in human Huh5-2 HCV subgenomic replicon-containing cells assessed as reduction in virus replication after 3 days by luciferase reporter gene assay; type: functional, Hepacivirus hominis; conditions: Hepatitis C virus, genotype 1b, Huh-5-2, 72 h; for pEC50: read-out: EC50
[5] = Cytotoxicity against human Huh5-2 cells after 72 hrs by MTS assay; type: cell-based, Huh-5-2
[6] = Selectivity index, ratio of CC50 for human Huh5-2 cells to EC50 for HCV genotype 1b; parameters: species or system Huh-5-2
[7] = tested on: Hepatitis C virus; experiment: Antiviral activity against HCV genotype 1b I389luc-ubi-neo/NS3-3'/5.1 replicons infected in human Huh-9-13 HCV subgenomic replicon-containing cells assessed as reduction in virus replication after 3 days by RT-qPCR method; type: functional, Hepacivirus hominis; conditions: 72 h
[8] = tested on: Hepatitis C virus; experiment: Antiviral activity against HCV genotype 1b I389luc-ubi-neo/NS3-3'/5.1 replicons infected in human HuH6 HCV subgenomic replicon-containing cells assessed as reduction in virus replication after 3 days by RT-qPCR method; type: functional, Hepacivirus hominis; conditions: HuH-6, 72 h
[9] = Cytotoxicity against human Huh-9-13 cells after 72 hrs by MTS assay; type: cell-based
[10] = Cytotoxicity against human HuH6 cells after 72 hrs by MTS assay; type: cell-based
[11] = Cytotoxicity against human Huh-9-13 cells assessed as reduction in cell number at 33 uM to 100 uM after 3 days by nile red staining based confocal microscopy; conditions: 72 h
[12] = Cytotoxicity against human Huh-9-13 cells assessed as alteration in cell morphology at 33 uM to 100 uM after 3 days by nile red staining based confocal microscopy; conditions: 72 h
[13] = Induction of phospholipidosis in human Huh-9-13 cells assessed as increase in charged lipid content at 33 uM to 100 uM after 3 days by nile red staining based confocal microscopy; type: cell-based; conditions: 72 h
[14] = Cytotoxicity against human Huh-9-13 cells assessed as reduction in cell number at 1 uM to 11 uM after 3 days by nile red staining based confocal microscopy; conditions: 72 h
[15] = Cytotoxicity against human Huh-9-13 cells assessed as alteration in cell morphology at 1 uM to 11 uM after 3 days by nile red staining based confocal microscopy; conditions: 72 h
[16] = Induction of phospholipidosis in human Huh-9-13 cells assessed as increase in charged lipid content at 1 uM to 11 uM after 3 days by nile red staining based confocal microscopy; type: cell-based; conditions: 72 h
[17] = tested on: Vaccinia virus; experiment: Antiviral activity against vaccinia virus; type: functional, organism-based; conditions: Orthopoxvirus vaccinia
[18] = tested on: Vesicular stomatitis virus; experiment: Antiviral activity against vesicular stomatitis virus; type: functional, organism-based
[19] = tested on: Coxsackievirus B4; experiment: Antiviral activity against human coxsackievirus B4; type: functional, organism-based
[20] = tested on: Respiratory syncytial virus; experiment: Antiviral activity against RSV; type: functional, organism-based
[21] = tested on: Human respirovirus 3; experiment: Antiviral activity against human parainfluenza virus 3; type: functional, organism-based
[22] = tested on: Reovirus sp.; experiment: Antiviral activity against reovirus; type: functional, organism-based
[23] = tested on: Sindbis virus; experiment: Antiviral activity against sindbis virus; type: functional, organism-based
[24] = tested on: Influenza A virus H3N2; experiment: Antiviral activity against influenza A virus H3N2; type: functional, organism-based
[25] = tested on: Influenza A virus; experiment: Antiviral activity against influenza A virus (H1N1); type: functional, organism-based
[26] = tested on: Punta Toro virus; experiment: Antiviral activity against punta toro virus; type: functional, organism-based
[27] = tested on: Feline coronavirus; experiment: Antiviral activity against feline coronavirus; type: functional, organism-based
[28] = tested on: Felid alphaherpesvirus 1; experiment: Antiviral activity against feline herpesvirus; type: functional, organism-based
[29] = tested on: Chikungunya virus; experiment: Antiviral activity against chikungunya virus; type: functional

O=C(NCCCCCCCCCCCCNC(=O)c1ccc(O)c(O)c1O)c1ccc(O)c(O)c1O
pEC50 [1]: < 5.00
pEC50 [2]: < 5.00
CC50 [3]: 55 µM
EC90 [4]: 6.1 µM
pEC50 [4]: 5.60
CC50 at 72 h [5]: > 100 µM
Ratio CC50/EC50 [6]: >40
pEC50 [7]: 5.08
pEC50 [8]: 4.48
CC50 at 72 h [9]: > 100 µM
CC50 at 72 h [10]: > 100 µM
Activity [11]: Toxic
Activity [12]: Toxic
Activity [13]: Toxic
Activity [14]: Non-toxic
Activity [15]: Non-toxic
Activity [16]: Non-toxic
Activity [17]: inactive
Activity [18]: inactive
Activity [19]: inactive
Activity [20]: inactive
Activity [21]: inactive
Activity [22]: inactive
Activity [23]: inactive
Activity [24]: inactive
Activity [25]: inactive
Activity [26]: inactive
Activity [27]: inactive
Activity [28]: inactive
Activity [29]: inactive

O=C(OCCCCCCCCCCCCOC(=O)c1cc(O)c(O)c(O)c1)c1cc(O)c(O)c(O)c1
pEC50 [1]: 5.34
pEC50 [2]: < 5.00
CC50 [3]: 4.7 µM
EC90 [4]: 37 µM
pEC50 [4]: 5.19
CC50 at 72 h [5]: > 50 µM
Ratio CC50/EC50 [6]: >7
Activity [17]: inactive
Activity [18]: inactive
Activity [19]: inactive
Activity [20]: inactive
Activity [21]: inactive
Activity [22]: inactive
Activity [23]: inactive
Activity [24]: inactive
Activity [25]: inactive
Activity [26]: inactive
Activity [27]: inactive
Activity [28]: inactive
Activity [29]: inactive

CCCCCCCCCCCCOC(=O)c1cc(O)c(O)c(O)c1 [DODECYL GALLATE]
pEC50 [1]: ≤ 6.00
pEC50 [2]: ≤ 6.00
CC50 [3]: 2.8 µM
EC90 [4]: 1.8 µM
pEC50 [4]: 6.40
CC50 at 72 h [5]: 8.9 µM
Ratio CC50/EC50 [6]: >22
Activity [17]: inactive
Activity [18]: inactive
Activity [19]: inactive
Activity [20]: inactive
Activity [21]: inactive
Activity [22]: inactive
Activity [23]: inactive
Activity [24]: inactive
Activity [25]: inactive
Activity [26]: inactive
Activity [27]: inactive
Activity [28]: inactive
Activity [29]: inactive
